Consider 17 molecules from patent publication US20060079696A1, “Substituted compounds derived from N-(benzyl)phenylacetamide, preparation and uses” (GENFIT, priority 2004, published 2006).

What all share (type): cell-based
One assay concerns the target T1, hPPARδ (Homo sapiens, UniProt Q03181).
T1 construct: fragments of DNA amplified by PCR corresponding to the DEF domains of the human PPARα, PPARγ PPARδ nuclear receptors; expressed in transfected cells; host or cells: COS-7 (monkey kidney fibroblast line)
T1 sequence (Q03181 211-439 limits assumed): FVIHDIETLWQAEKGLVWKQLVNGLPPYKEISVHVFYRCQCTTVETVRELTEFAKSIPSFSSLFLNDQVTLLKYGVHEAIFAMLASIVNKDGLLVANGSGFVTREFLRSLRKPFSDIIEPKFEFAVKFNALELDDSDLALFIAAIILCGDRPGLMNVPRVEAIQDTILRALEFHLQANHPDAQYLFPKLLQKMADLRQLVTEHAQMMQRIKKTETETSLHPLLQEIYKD
The experiment in a line: Gal4-hPPARδ chimera transactivation in COS-7 cells (luciferase). To be noted: induction factor standardised to an internal reference, read-out: % hGal4-PPAR transactivation (10 μM) delta. The protocol:
(§1) The PPAR activation was evaluated in vitro on a monkey kidney fibroblast line (COS-7) by measuring the transcriptional activity of chimeras constituted of the DNA binding domain of the Gal4 transcription factor of yeast and of the binding domain to the ligand of the different PPARs. The compounds were tested at doses between 0.01 and 100 μM on Gal4-PPARα, γ, δ chimeras. The induction factor (ratio between the luminescence induced by the compound and the luminescence induced by the control) was measured for each condition: the higher this factor, the more the compound has PPAR-activating properties.
(§2) The COS-7 cells from ATCC were cultivated in a DMEM medium supplemented with 10% (vol/vol) of foetal calf serum, 100 U/ml penicillin (Gibco, Paisley, UK) and 2 mM L-Glutamine (Gibco, Paisley, UK). The cells were incubated at 37° C. in a humid atmosphere containing 5% CO2.
(§3) The Gal4(RE)_TkpGL3, pGal4-hPPARα, pGal4-hPPARγ, pGal4-hPPARδ and pGal4-φ plasmids have been described in the literature (Raspe, Madsen et al. 1999). The pGal4-hPPARα, pGal4-hPPARγ and pGal4-hPPARδ constructs were obtained by cloning in the pGal4-φ vector of fragments of DNA amplified by PCR corresponding to the DEF domains of the human PPARα, PPARγ PPARδ nuclear receptors.
(§4) COS-7 cells were plated in 96 wells plates (5×10^4 cells/well) and transfected, in the presence of 10% foetal calf serum and 150 ng DNA per well, with a pGal4-PPAR/Gal4(RE)_TkpGL3 ratio of 1/10. The cells were then incubated for 24 hours with the compounds to be tested, without serum. At the end of the experiment, the cells were lysed and the luciferase activities were determined by means of Steady Glow Luciferase (Promega) according to the supplier's recommendations.
(§5) The inventive compounds were tested at 10 μM on the 3 PPAR isoforms. The results obtained are detailed in table (1). The transactivation measured is expressed as a response ratio versus an internal reference for each of the isoforms.
(§6) The compounds were tested at 10 μM on the Gal4-PPARα, γ, δ chimeras. The induction factor, i.e. the ratio between the luminescence induced by the compound and the luminescence induced by the control, was measured for each condition. It was then standardised in comparison to an internal reference and the results were then expressed in percentages : the higher the activation percentage, the more the compound has PPAR-activating properties.

The next assay addresses T2, hPPARα (Homo sapiens, UniProt Q07869).
T2 construct: fragments of DNA amplified by PCR corresponding to the DEF domains of the human PPARα, PPARγ PPARδ nuclear receptors; expressed in transfected cells; host or cells: COS-7 (monkey kidney fibroblast line)
T2 sequence (Q07869 239-466 limits assumed): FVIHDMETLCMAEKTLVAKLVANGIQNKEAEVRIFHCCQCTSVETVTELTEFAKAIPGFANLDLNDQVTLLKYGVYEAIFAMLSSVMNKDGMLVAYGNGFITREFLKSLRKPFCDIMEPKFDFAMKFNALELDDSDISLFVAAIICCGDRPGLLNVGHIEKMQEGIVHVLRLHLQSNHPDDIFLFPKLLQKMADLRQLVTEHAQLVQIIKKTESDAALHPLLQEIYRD
In words: Gal4-hPPARα chimera transactivation in COS-7 cells (luciferase). To be noted: induction factor standardised to an internal reference, read-out: % hGal4-PPAR transactivation (10 μM) alpha. The protocol:
as §1, §2, §3, §4, §5, §6

In a further assay the target is T3, hPPARγ (Homo sapiens, UniProt P37231).
T3 construct: fragments of DNA amplified by PCR corresponding to the DEF domains of the human PPARα, PPARγ PPARδ nuclear receptors; expressed in transfected cells; host or cells: COS-7 (monkey kidney fibroblast line)
T3 sequence (P37231 238-503 limits assumed): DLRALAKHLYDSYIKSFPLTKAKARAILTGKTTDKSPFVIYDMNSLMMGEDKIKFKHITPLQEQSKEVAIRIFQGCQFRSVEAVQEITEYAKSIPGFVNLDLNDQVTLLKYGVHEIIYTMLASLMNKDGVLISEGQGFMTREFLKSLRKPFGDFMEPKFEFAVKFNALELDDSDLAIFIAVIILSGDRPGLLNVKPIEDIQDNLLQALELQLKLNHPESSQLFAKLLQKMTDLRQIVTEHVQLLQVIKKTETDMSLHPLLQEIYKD
In words: Gal4-hPPARγ chimera transactivation in COS-7 cells (luciferase). Particulars: induction factor standardised to an internal reference, read-out: % hGal4-PPAR transactivation (10 μM) gamma. As for the experimental part: as §1, §2, §3, §4, §5, §6

Each structure is given as a SMILES string.

On to `CC(NC(=O)Cc1ccc(OC(C)(C)C(=O)O)cc1)c1ccccc1N1CCCCC1` (stereo not drawn) [Compound 2, 2-[4-[1-(1-(2-(1-piperidinyl)phenyl)ethyl)aminocarbonylmethyl]phenoxy]-2-methylpropanoic acid], for which the results for the activation at 10 µM on hPPARδ, on hPPARα and on hPPARγ were less than 10%, less than 10% and 27%, respectively.

As for `CCCCCCC(NC(=O)Cc1ccc(OC(C)(C)C(=O)O)cc1)c1ccccc1N1CCCCC1` (stereo not drawn) [Compound 5, 2-[4-[1-(1-(2-(1-piperidinyl)phenyl)heptyl)aminocarbonylmethyl]phenoxy]-2-methylpropanoic acid], the activation at 10 µM at hPPARδ is less than 10%; on hPPARα, 31%; at hPPARγ, 82%.

`Cc1cc(CC(=O)NC(CC(C)C)c2ccccc2N2CCCCC2)cc(C)c1OC(C)(C)C(=O)O` (stereo not drawn) [Compound 11, 2-[2,6-dimethyl-4-[1-(3-methyl-1-(2-(1-piperidinyl)phenyl)butyl)aminocarbonylmethyl]phenoxy]-2-methylpropanoic acid]: the activation at 10 µM on hPPARδ was less than 10%; at hPPARα, less than 10%; at hPPARγ it was 47%.

Turning to `CC(NC(=O)Cc1ccc(OC(C)(C)C(=O)O)cc1)c1ccccc1N1CCCCCC1` (stereo not drawn) [Compound 15, 2-[4-[1-(1-(2-(1-hexamethyleneimino)phenyl)ethyl)aminocarbonylmethyl]phenoxy]-2-methylpropanoic acid], the activation at 10 µM on hPPARδ is less than 10%; at hPPARα it was less than 10%; at hPPARγ, 42%.

`CCCCC(NC(=O)Cc1ccc(OC(C)(C)C(=O)O)cc1)c1ccc(-n2ccc3ccccc32)cc1N1CCCCC1` (stereo not drawn) [Compound 38, 2-[4-[1-(1-(2-(1-piperidinyl)-4-(1H-indolyl)phenyl)pentyl)aminocarbonylmethyl]phenoxy]-2-methylpropanoic acid]: the activation at 10 µM on hPPARδ was 18%; on hPPARα, 13%; at hPPARγ, less than 10%.

With `CC(C)CC(NC(=O)Cc1ccc(OCCCCOc2ccc(OC(C)(C)C(=O)O)cc2)cc1)c1ccccc1N1CCCCC1` (stereo not drawn) [Compound 40, 2-{4-{4-[4-[1-(3-methyl-1-(2-(1-piperidinyl)phenyl)butyl)aminocarbonylmethyl]phenoxy]butoxy}phenoxy}-2-methylpropanoic acid], the results for the activation at 10 µM on hPPARδ, on hPPARα and at hPPARγ were less than 10%, 20% and 55%, respectively.

Consider `CCCCC(NC(=O)Cc1ccc(OCC(C)(C)C(=O)O)cc1)c1ccccc1N1CCCCC1` (stereo not drawn) [Compound 42, 3-[4-[1-(1-(2-(1-piperidinyl)phenyl)pentyl)aminocarbonylmethyl]phenoxy]-2,2-dimethylpropanoic acid], for which the activation at 10 µM on hPPARδ is less than 10%; on hPPARα, 32%; on hPPARγ, less than 10%.

Consider `CCCCC(NC(=O)Cc1ccc(OC(C)(C)C(=O)O)cc1)c1ccccc1N1C[C@H](C)C[C@H](C)C1` (stereo partly drawn) [Compound 43, 2-[4-[1-(1-(2-((3S,5R)-3,5-dimethylpiperidine-1-yl)phenyl)pentyl)aminocarbonylmethyl]phenoxy]-2-methylpropanoic acid], for which the activation at 10 µM was less than 10% at hPPARδ, 27% at hPPARα and 18% at hPPARγ.

`CCN(CCCC(C)(C)C(=O)O)c1ccc(CC(=O)NC(CC(C)C)c2ccccc2N2CCCCC2)cc1` (stereo not drawn) [Compound 46, 5-{N-ethyl-N-[4-[1-(3-methyl-1-(2-(1-piperidinyl)phenyl)butyl)aminocarbonylmethyl]phenyl]amino}-2,2-dimethylpentanoic acid]: the figures for the activation at 10 µM on hPPARδ, at hPPARα and at hPPARγ were less than 10%, 58% and 12%, respectively.

On to `CCCCC(NC(=O)Cc1ccc(OCCCC(Cl)(Cl)C(=O)O)cc1)c1ccccc1N1CCCCC1` (stereo not drawn) [Compound 47, 5-[4-[1-(1-(2-(1-piperidinyl)phenyl)pentyl)aminocarbonylmethyl]phenoxy]-2,2-dichloropentanoic acid], for which the activation at 10 µM at hPPARδ was less than 10%; on hPPARα, 42%; at hPPARγ, less than 10%.

For `COc1ccc(CC(NC(=O)Cc2ccc(OC(C)(C)C(=O)O)cc2)c2ccccc2N2CCCCC2)cc1` (stereo not drawn) [Compound 48, 2-[4-[1-(2-(4-methoxyphenyl)-1-(2-(1-piperidinyl)phenyl)ethyl)aminocarbonylmethyl]phenoxy]-2-methylpropanoic acid], the values for the activation at 10 µM at hPPARδ, on hPPARα and on hPPARγ were less than 10%, less than 10% and 17%, respectively.

Turning to `CCCCC(NC(=O)Cc1ccc(OC(C)(C)C(=O)O)cc1)c1ccc(CCc2ccccc2)cc1N1CCCCC1` (stereo not drawn) [Compound 50, 2-[4-[1-(1-(2-(1-piperidinyl)-4-(phenethyl)phenyl)pentyl)aminocarbonylmethyl]phenoxy]-2-methylpropanoic acid], the activation at 10 µM is 11% on hPPARδ, less than 10% at hPPARα and less than 10% on hPPARγ.

Consider `CCCC(NC(=O)Cc1ccc(OC(C)(C)C(=O)NS(C)(=O)=O)cc1)c1ccccc1N1CCCCC1` (stereo not drawn) [Compound 66, N-[methylsulfonyl]-2-[4-[1-(1-(2-(1-piperidinyl)phenyl)butyl)aminocarbonylmethyl]phenoxy]-2-methylpropanamide], for which the activation at 10 µM on hPPARδ is less than 10%; on hPPARα, 40%; on hPPARγ, less than 10%.

Regarding `CCCCC(NC(=O)Cc1ccc(OC(C)(C)C(=O)NS(C)(=O)=O)cc1)c1ccccc1OC` (stereo not drawn) [Compound 67, N-[methylsulfonyl]-2-[4-[1-(1-(2-(methoxy)phenyl)pentyl)aminocarbonylmethyl]phenoxy]-2-methylpropanamide], the activation at 10 µM on hPPARδ, on hPPARα and at hPPARγ was less than 10% in each case.

`CCCCC(NC(=O)Cc1ccc(OC(C)(C)C(=O)O)cc1)c1ccccc1OCC(C)C` (stereo not drawn) [Compound 68, 2-[4-[1-(1-(2-(isobutyloxy)phenyl)pentyl)aminocarbonylmethyl]phenoxy]-2-methylpropanoic acid]: the values for the activation at 10 µM on hPPARδ, at hPPARα and at hPPARγ were less than 10%, less than 10% and 37%, respectively.

As for `CCCCC(NC(=O)Cc1ccc(OCc2nnn[nH]2)cc1)c1ccccc1N1CCCCC1` (stereo not drawn) [Compound 70, 2-(4-((1H-tetrazol-5-yl)methoxy)phenyl)-N-[1-(1-(2-(1-piperidinyl)phenyl)pentyl)]acetamide], the activation at 10 µM on hPPARδ was less than 10%; on hPPARα, less than 10%; at hPPARγ, 13%.

As for `CCCCC(NC(=O)Cc1ccc(OC(C)(C)C(=O)O)c(OC)c1)c1ccccc1N1CCCCC1` (stereo not drawn) [Compound 73, 2-[2-methoxy-4-[1-(1-(2-(1-piperidinyl)phenyl)pentyl)aminocarbonylmethyl]phenoxy]-2-methylpropanoic acid], the activation at 10 µM is less than 10% on hPPARδ, less than 10% at hPPARα and 42% at hPPARγ.
